Legend:
Type in all cases: cell-based
[1] = test system: Ba/F3-KDR-transfected cells; assay: Ba/F3-KDR (minus IL3 or plus IL3) cellular proliferation assay; details: 24 h, read-out: BAF3-KDR (MIN IL3) pIC50 (converted)
[2] = test system: Ba/F3-FGFR1-transfected cells; assay: Ba/F3-FGFR1 (minus IL3 or plus IL3) cellular proliferation assay; details: 24 h, read-out: BAF3-FGFR1 (MIN IL3) pIC50 (converted)
[3] = test system: Ba/F3-FGFR4-transfected cells; assay: Ba/F3-FGFR4 cellular proliferation assay; details: 24 h, read-out: BAF3-FGFR 4 pIC50 (converted)
[4] = test system: Ba/F3-FGFR3-transfected cells; assay: Ba/F3-FGFR3 (minus IL3 or plus IL3) cellular proliferation assay; details: 24 h, read-out: BAF3-FGFR3 (MIN IL3) pIC50 (converted)

**Q.** For `COc1cc(OC)cc(C(O)c2ccc3ncc(-c4cnn(C)c4)nc3n2)c1` (stereo not shown) [Compound 2], which IC50 [1] is on record?
**A.** The IC50 was over 10 µM.

**Q.** How did the IC50 [2] turn out when `COc1cc(OC)cc(C(C)(O)c2ccc3ncc(-c4cnn(C)c4)nc3n2)c1` (stereo not shown) [Compound 3] was run?
**A.** The IC50 was over 10 µM.

**Q.** And the IC50 [1]?
**A.** Its IC50 is over 10 µM.

**Q.** `COC(=O)CC(c1cc(OC)cc(OC)c1)c1ccc2ncc(-c3cnn(C)c3)nc2n1` (stereo not shown) [Compound 4] was tested. Which IC50 [1] did it give?
**A.** The IC50 was over 10 µM.

**Q.** What about the IC50 [3] of the same molecule?
**A.** Its IC50 is over 10 µM.

**Q.** With `COc1cc(OC)cc(C(=O)c2ccc3ncc(-c4cnn(C)c4)cc3n2)c1` [Compound 8] as the molecule, how does the IC50 [1] read?
**A.** Its IC50 is over 10 µM.

**Q.** And the IC50 [3]?
**A.** Its IC50 is over 10 µM.

**Q.** `COc1cc(OC)cc(C(O)c2ccc3ncc(-c4cnn(C)c4)cc3n2)c1` (stereo not shown) [Compound 10] was tested. Which IC50 [1] did it give?
**A.** The IC50 was over 10 µM.

**Q.** `COc1cc(OC)cc(C(OCCO)c2ccc3ncc(-c4cnn(C)c4)cc3n2)c1` (stereo not shown) [Compound 11] was tested. Which IC50 [1] did it give?
**A.** The IC50 was over 10 µM.

**Q.** Which IC50 [1] does the source give for `COc1cc(OC)cc(C(CCO)c2ccc3ncc(-c4cnn(C)c4)nc3n2)c1` (stereo not shown) [Compound 14] here?
**A.** The IC50 was over 10 µM.

**Q.** For `COc1cc(OC)cc(C(Cc2nccn2S(=O)(=O)N(C)C)c2ccc3ncc(-c4cnn(C)c4)nc3n2)c1` (stereo not shown) [Compound 15], which IC50 [1] is on record?
**A.** Its IC50 is over 10 µM.

**Q.** What does the source list for `COc1cccc(C(=O)c2ccc3ncc(-c4cnn(C)c4)cc3n2)c1` [Compound 16]?
**A.** IC50 [2]: > 10 µM; IC50 [1]: > 10 µM

**Q.** How did the IC50 [2] turn out when `COc1cccc(C(O)c2ccc3ncc(-c4cnn(C)c4)cc3n2)c1` (stereo not shown) [Compound 17] was run?
**A.** Its IC50 is over 10 µM.

**Q.** And the IC50 [1]?
**A.** Its IC50 is over 10 µM.

**Q.** Which results are given for `COc1cc(OC)cc(C(=O)c2ccc3ncc(N4CCOCC4)cc3n2)c1` [Compound 20]?
**A.** IC50 [2]: > 10 µM; IC50 [1]: > 10 µM; IC50 [3]: > 10 µM

**Q.** For `CCOC(=O)CC(c1cc(OC)cc(OC)c1)c1ccc2ncc(N3CCOCC3)cc2n1` (stereo not shown) [Compound 21], which IC50 [2] is on record?
**A.** The IC50 was over 10 µM.

**Q.** And the IC50 [1]?
**A.** Its IC50 is over 10 µM.

**Q.** And the IC50 [3]?
**A.** The IC50 was over 10 µM.

**Q.** Which results are given for `COc1cc(OC)cc(C(=O)c2cc3cc(-c4cnn(C)c4)cnc3cn2)c1` [Compound 23]?
**A.** IC50 [2]: > 10 µM; IC50 [1]: > 10 µM; IC50 [3]: > 10 µM

**Q.** How did the IC50 [2] turn out when `CCOC(=O)CC(c1cc(OC)cc(OC)c1)c1cc2cc(-c3cnn(C)c3)cnc2cn1` (stereo not shown) [Compound 24] was run?
**A.** Its IC50 is over 10 µM.

**Q.** And the IC50 [4]?
**A.** Its IC50 is over 10 µM.

**Q.** What about the IC50 [1] of the same molecule?
**A.** Its IC50 is over 10 µM.

**Q.** What about the IC50 [3] of the same molecule?
**A.** Its IC50 is over 10 µM.

**Q.** For `COc1cccc(C(=O)c2cc3cc(-c4cnn(C)c4)cnc3cn2)c1` [Compound 26], which IC50 [2] is on record?
**A.** The IC50 was over 10 µM.

**Q.** And the IC50 [4]?
**A.** Its IC50 is over 10 µM.

**Q.** What about the IC50 [3] of the same molecule?
**A.** Its IC50 is over 10 µM.

Source: patent US9737544B2, “Compounds” (ASTEX THERAPEUTICS LIMITED, priority 2012, dated 2017)
